Assay results as given in patent US20100041657A1, “HALOALKYLSULFONE SUBSTITUTED COMPOUNDS USEFUL FOR TREATING OBESITY AND DIABETES” (NOVO NORDICK A/S, priority 2005, published 2010).
Values joined by “and” are separate entries in the source; they are usually repeats but may differ in a detail not shown here. Equal entries are not always repeated.

Compound | melting point
O=C(Nc1cccc(SC(F)(F)F)c1)c1ccc2ccccc2c1O [Example 17, 1-Hydroxy-naphthalene-2-carboxylic acid (3-trifluoromethylsulfanyl-phenyl)-amide] | 154 °C
O=C(Nc1ccc(SC(F)(F)F)c(Cl)c1)c1cc(Cl)c2ccccc2c1O [Example 27, 4-Chloro-1-hydroxy-naphthalene-2-carboxylic acid (3-chloro-4-trifluoromethylsulfanyl-phenyl)-amide] | 148 to 149 °C
COc1cc(C(C)(C)C)c(O)c(C(=O)Nc2ccc(S(=O)(=O)C(F)(F)F)cc2Cl)c1C [Example 93, 3-tert-Butyl-N-(2-chloro-4-trifluoromethanesulfonyl-phenyl)-2-hydroxy-5-methoxy-6-methyl-benzamide] | 121 to 122 °C
O=C(Nc1ccc(S(=O)(=O)C(F)(F)F)cc1Cl)c1c(O)c(C23CC4CC(CC(C4)C2)C3)cc2c1CCCC2 [Example 29] | 205 to 206 °C
CSc1c(C)cc(O)c(C(=O)Nc2ccc(S(=O)(=O)C(F)(F)F)cc2Cl)c1C [Example 163, N-(2-Chloro-4-trifluoromethanesulfonyl-phenyl)-6-hydroxy-2,4-dimethyl-3-methylsulfanyl-benzamide] | 205 to 206 °C and 201 to 202 °C
O=C(Nc1ccc(S(=O)(=O)C(F)(F)F)cc1Cl)c1cc(-c2ccc(F)cc2F)cc(C23CC4CC(CC(C4)C2)C3)c1O [Example 32, 5-Adamantan-1-yl-2′,4′-difluoro-4-hydroxy-biphenyl-3-carboxylic acid (2-chloro-4-trifluoromethanesulfonyl-phenyl)-amide] | 177 to 178 °C
COc1ccc(C(C)(C)C)c(O)c1C(=O)Nc1ccc(S(=O)(=O)C(F)(F)F)cc1Cl [Example 92, 3-tert-Butyl-N-(2-chloro-4-trifluoromethanesulfonyl-phenyl)-2-hydroxy-6-methoxy-benzamide] | 198 to 199 °C
CC1(c2cc(-c3ccc(F)cc3F)cc(C(=O)Nc3ccc(S(=O)(=O)C(F)(F)F)cc3Cl)c2O)CCCCC1 [Example 35, 2′,4′-Difluoro-4-hydroxy-5-(1-methyl-cyclohexyl)-biphenyl-3-carboxylic acid (2-chloro-4-trifluoromethanesulfonyl-phenyl)-amide] | 114 to 115 °C
CC(C)(C)c1cc2c(c(C(=O)Nc3ccc(S(=O)(=O)C(F)(F)F)cc3Cl)c1O)CCO2 [Example 94, 6-tert-Butyl-5-hydroxy-2,3-dihydro-benzofuran-4-carboxylic acid (2-chloro-4-trifluoromethanesulfonyl-phenyl)-amide] | 201 to 202 °C
Cc1cc(C(=O)Nc2ccc(S(=O)(=O)C(F)(F)F)cc2Cl)c(O)c(C(C)(C)C)c1 [Example 26, 3-tert-Butyl-N-(2-chloro-4-trifluoromethanesulfonyl-phenyl)-2-hydroxy-5-methylbenzamide] | 209 to 212 °C
O=C(Nc1ccc(S(=O)(=O)C(F)(F)F)cc1Cl)c1cc([S+]([O-])c2ccc(F)cc2)c2ccccc2c1O (stereo not shown) [Example 33, 4-(4-Fluoro-benzenesulfinyl)-1-hydroxy-naphthalene-2-carboxylic acid (2-chloro-4-trifluoromethanesulfonyl-phenyl)-amide] | 198 to 199.5 °C
O=C(Nc1cccc(S(=O)(=O)C(F)(F)F)c1)c1c(O)ccc2ccccc12 [Example 18, 2-Hydroxy-naphthalene-1-carboxylic acid (3-trifluoromethanesulfonyl-phenyl)-amide] | 179 to 180 °C
CC(C)(C)c1cc2c(c(C(=O)Nc3ccc(S(=O)(=O)C(F)(F)F)cc3Cl)c1O)CCC2 [Example 48, 6-tert-Butyl-5-hydroxy-indan-4-carboxylic acid (2-chloro-4-trifluoromethanesulfonylphenyl)-amide] | 172 to 173 °C
COc1c(O)cc(C(C)(C)C)c(O)c1C(=O)Nc1ccc(S(=O)(=O)C(F)(F)F)cc1Cl [Example 96, 3-tert-Butyl-N-(2-chloro-4-trifluoromethanesulfonyl-phenyl)-2,5-dihydroxy-6-methoxy-benzamide] | 171 to 175 °C
O=C(Nc1ccc(SC(F)(F)F)cc1)c1cc(Cl)c2ccccc2c1O [Example 23, 4-Chloro-1-hydroxy-naphthalene-2-carboxylic acid (4-trifluoromethylsulfanyl-phenyl)amide] | 172 to 175 °C
CCc1ccc(C(C)(C)C)c(O)c1C(=O)Nc1ccc(S(=O)(=O)C(F)(F)F)cc1Cl [Example 46, 3-tert-Butyl-N-(2-chloro-4-trifluoromethanesulfonyl-phenyl)-6-ethyl-2-hydroxybenzamide] | 126 to 127 °C

Compound | melting point
O=C(Nc1ccc(S(=O)(=O)C(F)(F)F)cc1Cl)c1cc(Sc2ccc(F)cc2)c2ccccc2c1O [Example 31, 4-(4-Fluoro-phenylsulfanyl)-1-hydroxy-naphthalene-2-carboxylic acid (2-chloro-4-trifluoromethanesulfonyl-phenyl)-amide] | 195 to 198 °C
COc1cc(C(=O)Nc2ccc(S(=O)(=O)C(F)(F)F)cc2Cl)c(O)c(C(C)(C)C)c1 [Example 53, 3-tert-Butyl-N-(2-chloro-4-trifluoromethanesulfonyl-phenyl)-2-hydroxy-5-methoxy-benzamide] | 126 to 127 °C
CC(C)c1ccc(C(C)(C)C)c(O)c1C(=O)Nc1ccc(S(=O)(=O)C(F)(F)F)cc1Cl [Example 54, 3-tert-Butyl-N-(2-chloro-4-trifluoromethanesulfonyl-phenyl)-2-hydroxy-6-isopropyl-benzamide] | 116 to 116.5 °C
CC(C)(C)c1cc(C(C)(C)C)c(O)c(C(=O)Nc2ccc(S(=O)(=O)C(F)(F)F)cc2Cl)c1O [Example 100, 3,5-Di-tert-butyl-N-(2-chloro-4-trifluoromethanesulfonyl-phenyl)-2,6-dihydroxy-benzamide] | 149 to 150 °C
Cc1cc(C(=O)Nc2ccc(S(=O)(=O)C(F)(F)F)cc2Cl)c(O)c(C23CC4CC(CC(C4)C2)C3)c1 [Example 24, 3-Adamantan-1-yl-N-(2-chloro-4-trifluoromethanesulfonyl-phenyl)-2-hydroxy-5-methyl-benzamide] | 203 to 204 °C
Cc1c([S+](C)[O-])cc(C(C)(C)C)c(O)c1C(=O)Nc1ccc(S(=O)(=O)C(F)(F)F)cc1Cl (stereo not shown) [Example 51, 3-tert-Butyl-N-(2-chloro-4-trifluoromethanesulfonyl-phenyl)-2-hydroxy-5-methanesulfinyl-6-methyl-benzamide] | 218 to 219 °C (dec.)
O=C(Nc1cccc(S(=O)(=O)C(F)(F)F)c1)c1ccc2ccccc2c1O [Example 16, 1-Hydroxy-naphthalene-2-carboxylic acid (3-trifluoromethanesulfonyl-phenyl)-amide] | 194 to 195 °C
Cc1c(O)cc(C(C)(C)C)c(O)c1C(=O)Nc1ccc(S(=O)(=O)C(F)(F)F)cc1Cl [Example 95, 3-tert-Butyl-N-(2-chloro-4-trifluoromethanesulfonyl-phenyl)-2,5-dihydroxy-6-methylbenzamide] | 163 to 166 °C
O=C(Nc1cccc(S(=O)(=O)C(F)(F)F)c1)c1cc2ccccc2cc1O [Example 19, 3-Hydroxy-naphthalene-2-carboxylic acid (3-trifluoromethanesulfonyl-phenyl)-amide] | 212 to 213 °C
O=C(Nc1ccc(SC(F)(F)F)cc1)c1ccc2c(c1O)CCCC2 [Example 21, 1-Hydroxy-5,6,7,8-tetrahydro-naphthalene-2-carboxylic acid (4-trifluoromethylsulfanyl-phenyl)-amide] | 167 °C
COc1cc(C(C)(C)C)c(O)c(C(=O)Nc2ccc(S(=O)(=O)C(F)(F)F)cc2Cl)c1O [Example 97, 3-tert-Butyl-N-(2-chloro-4-trifluoromethanesulfonyl-phenyl)-2,6-dihydroxy-5-methoxy-benzamide] | 170 to 171 °C
CC(C)(C)c1cc2c(c(C(=O)Nc3ccc(S(=O)(=O)C(F)(F)F)cc3Cl)c1O)CCCC2 [Example 50, 3-tert-Butyl-2-hydroxy-5,6,7,8-tetrahydro-naphthalene-1-carboxylic acid (2-chloro-4-trifluoromethanesulfonyl-phenyl)-amide] | 151 °C
O=C(Nc1ccc(SC(F)(F)F)cc1)c1cc(S(=O)(=O)c2ccccc2)c2ccccc2c1O [Example 22, 4-Benzenesulfonyl-1-hydroxy-naphthalene-2-carboxylic acid (4-trifluoromethylsulfanyl-phenyl)-amide] | 271 to 272 °C
CCc1c(C(C)(C)C)cc(C(C)(C)C)c(O)c1C(=O)Nc1ccc(S(=O)(=O)C(F)(F)F)cc1Cl [Example 47, 3,5-Di-tert-butyl-N-(2-chloro-4-trifluoromethanesulfonyl-phenyl)-2-ethyl-6-hydroxybenzamide] | 157 to 158 °C
O=C(Nc1ccc(S(=O)(=O)C(F)(F)F)cc1Cl)c1c(O)c(C23CC4CC(CC(C4)C2)C3)cc2c1CCC2 [Example 30, 6-Adamantan-1-yl-5-hydroxy-indan-4-carboxylic acid (2-chloro-4-trifluoromethanesulfonyl-phenyl)-amide] | 218 to 219 °C
